Structures are written as SMILES.

The target in one test is Human VPS34 (Homo sapiens (Human), UniProt Q8NEB9). The test can be described thus: Human VPS34 enzyme assay (Adapta TR-FRET). In kind it is biochemical. Particulars: compound concentration 1.11 μM; read-out: Percent Inhibition. Background: TR-FRET usually uses a lanthanide donor and a delayed reading to cut background.
Sequence of Human VPS34 (Q8NEB9 whole entry): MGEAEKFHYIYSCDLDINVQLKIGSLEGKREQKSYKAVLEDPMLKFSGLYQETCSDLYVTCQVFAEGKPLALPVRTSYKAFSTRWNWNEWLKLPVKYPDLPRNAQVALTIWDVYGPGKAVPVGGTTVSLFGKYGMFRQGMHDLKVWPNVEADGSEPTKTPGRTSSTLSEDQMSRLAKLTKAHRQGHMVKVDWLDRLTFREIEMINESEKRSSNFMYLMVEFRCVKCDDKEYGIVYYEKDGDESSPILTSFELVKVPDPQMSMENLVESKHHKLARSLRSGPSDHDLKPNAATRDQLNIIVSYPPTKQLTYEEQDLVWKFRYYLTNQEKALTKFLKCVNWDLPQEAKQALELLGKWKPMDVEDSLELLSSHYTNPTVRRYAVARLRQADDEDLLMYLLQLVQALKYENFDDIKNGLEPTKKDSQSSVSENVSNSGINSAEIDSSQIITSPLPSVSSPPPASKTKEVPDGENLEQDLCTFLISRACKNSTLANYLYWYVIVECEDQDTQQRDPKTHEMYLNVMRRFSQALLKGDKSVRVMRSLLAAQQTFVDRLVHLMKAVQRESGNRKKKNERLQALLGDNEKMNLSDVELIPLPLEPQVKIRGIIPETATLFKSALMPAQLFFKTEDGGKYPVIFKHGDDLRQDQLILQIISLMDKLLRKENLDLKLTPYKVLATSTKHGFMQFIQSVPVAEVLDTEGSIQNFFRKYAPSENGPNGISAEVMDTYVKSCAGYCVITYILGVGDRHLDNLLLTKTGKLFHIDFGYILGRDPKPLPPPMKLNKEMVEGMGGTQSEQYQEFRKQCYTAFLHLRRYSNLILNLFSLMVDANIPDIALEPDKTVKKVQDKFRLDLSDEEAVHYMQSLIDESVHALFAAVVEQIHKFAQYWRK
One may read the inhibition as the relative decrease from the control value, in per cent. In the case of `CC(=O)Nc1cc(-c2cnc3c(c2)c(S(=O)(=O)N2CCCC2)cn3C)ccn1` [Compound I-151, N-{4-[1-methyl-3-(pyrrolidin-1-ylsulfonyl)-1H-pyrrolo[2,3-b]pyridin-5-yl]pyridin-2-yl}acetamide], the inhibition at 1.11 µM is more than 99%. For `CC(=O)Nc1cc(-c2cnc(N)c(C(=O)N3CCOCC3)c2)ccn1` [Compound I-152, N-[6-amino-5-(morpholin-4-ylcarbonyl)-3,4′-bipyridin-2′-yl]acetamide], the inhibition at 1.11 µM is more than 99%. As for `CC(=O)Nc1cc(-c2cnc(Cl)c(NS(=O)(=O)c3ccc(F)cc3F)c2C)ccn1` [Compound I-153, N-(6-chloro-5-{[(2,4-difluorophenyl)sulfonyl]amino}-4-methyl-3,4′-bipyridin-2′-yl)acetamide], the inhibition at 1.11 µM was more than 99%.

As to `CC(=O)Nc1cc(-c2cnc(C)c(NS(=O)(=O)c3ccc(Cl)cc3)c2)ccn1` [Compound I-154, N-(5-{[(4-chlorophenyl)sulfonyl]amino}-6-methyl-3,4′-bipyridin-2′-yl)acetamide], the inhibition at 1.11 µM is more than 99%. The same measure, in the same setting: the result for `CC(=O)Nc1cc(-c2cnc(C)c(NS(=O)(=O)c3cccc(F)c3)c2)ccn1` [Compound I-155, N-(5-{[(3-fluorophenyl)sulfonyl]amino}-6-methyl-3,4′-bipyridin-2′-yl)acetamide] reads more than 99%. Take `CC(=O)Nc1cc(-c2cnc(N)c(S(=O)(=O)N3CCCCC3)c2)ccn1` [Compound I-156, N-[6-amino-5-(piperidin-1-ylsulfonyl)-3,4′-bipyridin-2′-yl]acetamide]: the inhibition at 1.11 µM was more than 99%. With `CC(=O)Nc1cc(-c2cnc(N)c(C(=O)N3CC[C@@H](F)C3)c2)ccn1` [Compound I-157, N-(6-amino-5-{[(3R)-3-fluoropyrrolidin-1-yl]carbonyl}-3,4′-bipyridin-2′-yl)acetamide], the inhibition at 1.11 µM is more than 99%. As to `CC(=O)Nc1cc(-c2cnc3[nH]cc(S(=O)(=O)N4CCCC4)c3c2)ccn1` [Compound I-158, N-{4-[3-(pyrrolidin-1-ylsulfonyl)-1H-pyrrolo[2,3-b]pyridin-5-yl]pyridin-2-yl}acetamide], the inhibition at 1.11 µM is more than 99%. In the case of `COc1cc(F)c(S(=O)(=O)Nc2cc(-c3ccnc(NC(C)=O)c3)cnc2C)cc1F` [Compound I-159, N-(5-{[(2,5-difluoro-4-methoxyphenyl)sulfonyl]amino}-6-methyl-3,4′-bipyridin-2′-yl)acetamide], the inhibition at 1.11 µM is more than 99%. Turning to `CNc1ncc(-c2ccnc(NC(C)=O)c2)cc1C(=O)NC12CC(C1)C2` [Compound I-160, 2′-acetamido-N-(bicyclo[1.1.1]pent-1-yl)-6-(methylamino)-3,4′-bipyridine-5-carboxamide], the inhibition at 1.11 µM was more than 99%. In the case of `CC(=O)Nc1cc(-c2cnc(C)c(NS(=O)(=O)c3ccc(F)cc3F)c2)c(F)cn1` [Compound I-161, N-(5-{[(2,4-difluorophenyl)sulfonyl]amino}-5′-fluoro-6-methyl-3,4′-bipyridin-2′-yl)acetamide], the inhibition at 1.11 µM is more than 99%. With `CC(=O)Nc1cc(-c2cnc(N(C)C)c(C(=O)N(C)C)c2)ccn1` [Compound I-162, 2′-acetamido-6-(dimethylamino)-N,N-dimethyl-3,4′-bipyridine-5-carboxamide], the inhibition at 1.11 µM was more than 99%.

Regarding `COc1ccc(S(=O)(=O)Nc2cc(-c3ccnc(NC(C)=O)c3)cnc2C)c(F)c1` [Compound I-163, N-(5-{[(2-fluoro-4-methoxyphenyl)sulfonyl]amino}-6-methyl-3,4′-bipyridin-2′-yl)acetamide], the inhibition at 1.11 µM is more than 99%.

Take `CC(=O)Nc1cc(-c2cnc(F)c(NS(=O)(=O)c3ccc(F)cc3F)c2)ccn1` [Compound I-164, N-(5-{[(2,4-difluorophenyl)sulfonyl]amino}-6-fluoro-3,4′-bipyridin-2′-yl)acetamide]: the inhibition at 1.11 µM is more than 99%. Turning to `COc1ccc(S(=O)(=O)Nc2cc(-c3ccnc(NC(C)=O)c3)cnc2C)cc1` [Compound I-165, N-(5-{[(4-methoxyphenyl)sulfonyl]amino}-6-methyl-3,4′-bipyridin-2′-yl)acetamide], the inhibition at 1.11 µM is more than 99%.

Take `CN(C)S(=O)(=O)c1cc(-c2ccnc(Nc3ncco3)c2)cnc1N` [Compound I-166, 6-amino-N,N-dimethyl-2′-(1,3-oxazol-2-ylamino)-3,4′-bipyridine-5-sulfonamide]: the inhibition at 1.11 µM was more than 99%. In the case of `CC(=O)Nc1cc(-c2cnc(C)c(NS(C)(=O)=O)c2)ccn1` [Compound I-167, N-{6-methyl-5-[(methylsulfonyl)amino]-3,4′-bipyridin-2′-yl}acetamide], the inhibition at 1.11 µM was more than 99%. With `CC(=O)Nc1cc(-c2cnc(C)c(NS(=O)(=O)c3cccc(C(F)(F)F)c3)c2)ccn1` [Compound I-168, N-[6-methyl-5-({[3-(trifluoromethyl)phenyl]sulfonyl}amino)-3,4′-bipyridin-2′-yl]acetamide], the inhibition at 1.11 µM was more than 99%. For the molecule `CC(=O)Nc1cc(-c2cnc(N)c(C(=O)NC3CC3)c2)ccn1` [Compound I-169, 2′-acetamido-6-amino-N-cyclopropyl-3,4′-bipyridine-5-carboxamide], the inhibition at 1.11 µM is more than 99%. Turning to `CC(=O)Nc1cc(-c2cnc(N)c(S(=O)(=O)Nc3ccc(F)cc3F)c2)ccn1` [Compound I-170, N-{6-amino-5-[(2,4-difluorophenyl)sulfamoyl]-3,4′-bipyridin-2′-yl}acetamide], the inhibition at 1.11 µM is more than 99%. Same read-out and setting: the same measure for `COC(=O)Nc1cc(-c2cnc(N)c(S(=O)(=O)N(C)C)c2)ccn1` [Compound I-171, Methyl [6-amino-5-(dimethylsulfamoyl)-3,4′-bipyridin-2′-yl]carbamate]: more than 99%; for `CNc1ncc(-c2ccnc(NC(C)=O)c2)cc1S(=O)(=O)N(C(C)C)C(C)C` [Compound I-173, N-[5-(diisopropylsulfamoyl)-6-(methylamino)-3,4′-bipyridin-2′-yl]acetamide]: more than 99%; for `CC(=O)Nc1cc(-c2cnc(N(C)C)c(C(=O)N(C)c3ccc(F)cc3F)c2)ccn1` [Compound I-174, 2′-Acetamido-N-(2,4-difluorophenyl)-6-(dimethylamino)-N-methyl-[3,4′-bipyridine]-5-carboxamide]: more than 99%. Consider `CC(=O)Nc1cc(-c2cnc(N)c(S(=O)(=O)C(C)C)c2)ccn1` [Compound I-175, N-[6-amino-5-(isopropylsulfonyl)-3,4′-bipyridin-2′-yl]acetamide], for which the inhibition at 1.11 µM is more than 99%. Regarding `CC(=O)Nc1cc(-c2cnc3[nH]cc(S(=O)(=O)c4ccccc4)c3c2)ccn1` [Compound I-176, N-{4-[3-(phenylsulfonyl)-1H-pyrrolo[2,3-b]pyridin-5-yl]pyridin-2-yl}acetamide], the inhibition at 1.11 µM is more than 99%. For the molecule `CC(=O)Nc1cc(-c2cnc(C)c(NS(=O)(=O)c3ccc(F)cc3F)c2)c(C)cn1` [Compound I-177, N-(5-{[(2,4-difluorophenyl)sulfonyl]amino}-5′,6-dimethyl-3,4′-bipyridin-2′-yl)acetamide], the inhibition at 1.11 µM was more than 99%. Same read-out and setting: the same measure for `CC(=O)Nc1cc(-c2cnc(C)c(NS(=O)(=O)c3cc(C)ccc3C)c2)ccn1` [Compound I-178, N-(5-{[(2,5-dimethylphenyl)sulfonyl]amino}-6-methyl-3,4′-bipyridin-2′-yl)acetamide]: more than 99%. The same measure, in the same setting: the same measure for `CC(=O)Nc1cc(-c2cnc(N)c(C(=O)Nc3cccc(F)c3F)c2)ccn1` [Compound I-179, 2′-acetamido-6-amino-N-(2,3-difluorophenyl)-3,4′-bipyridine-5-carboxamide]: more than 99%; for `COC(=O)Nc1cc(-c2cncc(C(=O)C3CC3)c2)ccn1` [Compound I-180, methyl[5-(cyclopropylcarbonyl)-3,4′-bipyridin-2′-yl]carbamate]: more than 99%. For the molecule `CC(=O)Nc1cc(-c2cnc(N)c(N3CCCS3(=O)=O)c2)ccn1` [Compound I-181, N-[6-amino-5-(1,1-dioxidoisothiazolidin-2-yl)-3,4′-bipyridin-2′-yl]acetamide], the inhibition at 1.11 µM was more than 99%.

`CC(=O)Nc1cc(-c2cnc(C)c(NS(=O)(=O)c3ccc(C)cc3F)c2)ccn1` [Compound I-182, N-(5-{[(2-fluoro-4-methylphenyl)sulfonyl]amino}-6-methyl-3,4′-bipyridin-2′-yl)acetamide]: the inhibition at 1.11 µM was more than 99%. Still for that read-out and setting: the result for `CC(=O)Nc1cc(-c2cnc(N)c(S(=O)(=O)NCC3CCCCC3)c2)ccn1` [Compound I-183, N-{6-amino-5-[(cyclohexylmethyl)sulfamoyl]-3,4′-bipyridin-2′-yl}acetamide] reads more than 99%. As to `CC(=O)Nc1cc(-c2cncc(C=O)c2)ccn1` [Compound I-184, N-(5-formyl-3,4′-bipyridin-2′-yl)acetamide], the inhibition at 1.11 µM came out at 74%. Take `CC(=O)Nc1cc(-c2cnc(C)c(NS(=O)(=O)c3ccc(F)cc3)c2)ccn1` [Compound I-185, N-(5-{[(4-fluorophenyl)sulfonyl]amino}-6-methyl-3,4′-bipyridin-2′-yl)acetamide]: the inhibition at 1.11 µM was more than 99%. `CC(=O)Nc1cc(-c2cnc(N)c(C(=O)NC34CC(C3)C4)c2)ccn1` [Compound I-187, 2′-acetamido-6-amino-N-(bicyclo[1.1.1]pent-1-yl)-3,4′-bipyridine-5-carboxamide]: the inhibition at 1.11 µM is more than 99%. As to `CC(=O)Nc1cc(-c2cncc(/C=C/C(=O)c3ccc(F)cc3)c2)ccn1` [Compound I-188, N-{5-[(1E)-3-(4-fluorophenyl)-3-oxoprop-1-en-1-yl]-3,4′-bipyridin-2′-yl}acetamide], the inhibition at 1.11 µM is 98%. Still for that read-out and setting: the result for `CC(=O)Nc1cc(-c2cnc3[nH]ncc3c2)ccn1` [Compound I-189, N-[4-(1H-pyrazolo[3,4-b]pyridin-5-yl)pyridin-2-yl]acetamide] reads more than 99%.

Staying with this test, now noted: read-out: Percent Inhibition.
For the molecule `CC(=O)Nc1cc(-c2cnc(N)c(S(=O)(=O)Cc3ccccc3Cl)c2)ccn1` [Compound I-172, N-{6-amino-5-[(2-chlorobenzyl)sulfonyl]-3,4′-bipyridin-2′-yl}acetamide], the inhibition at 1.11 µM was more than 99%. As for `CC(=O)Nc1cc(-c2cnc(N)c(S(=O)(=O)N(C)C)c2)c(F)cn1` [Compound I-186], the inhibition at 1.11 µM is more than 99%.

Source of the values: patent US9802960B2 (MILLENNIUM PHARMACEUTICALS, INC., priority 2014, dated 2017).
